Columns and labels:
[1] = target: Cyclooxygenase (Homo sapiens, UniProt P35354+P23219); assay: In vitro inhibition of Prostaglandin G/H synthase from human polymorphs; format: protein assay
[2] = target: T1, Polyunsaturated fatty acid 5-lipoxygenase (Homo sapiens, UniProt P09917); assay: In vitro inhibition of 5-lipoxygenase from human polymorphs
T1 sequence (P09917 whole entry): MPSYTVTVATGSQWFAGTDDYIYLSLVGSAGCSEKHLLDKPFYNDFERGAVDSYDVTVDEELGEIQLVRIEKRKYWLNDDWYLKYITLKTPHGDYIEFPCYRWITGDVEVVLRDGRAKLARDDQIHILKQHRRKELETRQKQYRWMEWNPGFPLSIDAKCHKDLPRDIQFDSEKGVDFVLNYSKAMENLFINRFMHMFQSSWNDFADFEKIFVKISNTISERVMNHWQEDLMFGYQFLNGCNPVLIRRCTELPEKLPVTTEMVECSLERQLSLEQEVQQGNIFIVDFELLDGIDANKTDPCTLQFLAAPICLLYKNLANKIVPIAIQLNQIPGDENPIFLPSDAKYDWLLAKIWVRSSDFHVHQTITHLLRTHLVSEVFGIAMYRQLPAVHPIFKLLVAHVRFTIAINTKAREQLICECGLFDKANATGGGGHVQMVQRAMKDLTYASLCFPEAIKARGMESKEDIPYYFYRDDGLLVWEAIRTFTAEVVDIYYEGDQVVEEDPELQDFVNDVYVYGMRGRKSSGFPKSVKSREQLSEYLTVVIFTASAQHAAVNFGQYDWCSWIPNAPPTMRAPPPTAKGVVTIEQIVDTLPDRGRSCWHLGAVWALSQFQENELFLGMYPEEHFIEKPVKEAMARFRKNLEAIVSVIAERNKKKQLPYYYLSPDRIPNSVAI

Compound: CC(=O)N(O)C/C=C/c1cccc(Oc2ccccc2)c1
- IC50 [1]: 3200 nM

Compound: CN(O)C(=O)/C=C/c1cccc(Oc2ccccc2)c1
- IC50 [2]: 50 nM
- IC50 [1]: 5000 nM

Compound: CC(=O)N(O)Cc1ccc(OCc2ccccc2)cc1
- IC50 [2]: 770 nM
- IC50 [1]: 22000 nM
